Data taken from the supplement of paper PMC10307832.

How the values were obtained:
Test in all cases: relative viability (nuclei count vs DMSO), 5 days (fraction); higher = more cells survive
[1] = test system: 201T
How it was run: (§1)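 Relative viability was taken as the ratio of nuclei in treated wells to nuclei in vehicle wells. Lung cancer cell lines in 1536-well plates received compounds by pin tool one day after seeding, either one drug alone or a fixed anchor-drug dose plus five library-drug doses (not always all listed) in √10 steps. Nuclei were counted on 4× images after 5 days of treatment, and values are medians of duplicate plates.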

[2] = test system: BEN
How it was run: as §1

[3] = test system: CAL-12T
How it was run: as §1

[4] = test system: HCC-44
How it was run: as §1

[5] = test system: HCC-827
How it was run: as §1

[6] = test system: HOP-62
How it was run: as §1

[7] = test system: LCLC-103H
How it was run: as §1

[8] = test system: LCLC-97TM1
How it was run: as §1

[9] = test system: LXF-289
How it was run: as §1

[10] = test system: NCI-H1395
How it was run: as §1

[11] = test system: NCI-H1437
How it was run: as §1

[12] = test system: NCI-H1650
How it was run: as §1

[13] = test system: NCI-H1793
How it was run: as §1

[14] = test system: NCI-H1944
How it was run: as §1

[15] = test system: NCI-H2087
How it was run: as §1

[16] = test system: NCI-H2228
How it was run: as §1

[17] = test system: NCI-H2405
How it was run: as §1

[18] = test system: NCI-H3122
How it was run: as §1

[19] = test system: NCI-H322M
How it was run: as §1

[20] = test system: NCI-H647
How it was run: as §1

[21] = test system: NCI-H727
How it was run: as §1

[22] = test system: RERF-LC-KJ
How it was run: as §1

[23] = test system: SK-LU-1
How it was run: as §1

Oc1nc(-c2ccc(C(F)(F)F)cc2)nc2c1CSCC2 [XAV939] + COc1cccc2cc(-c3nc([C@H]4CC[C@H](C(=O)O)CC4)n4ncnc(N)c34)[nH]c12 [OSI-027] (partner 0.5 µM)
relative viability ([1]; first compound 0.08 µM): 0.61 | relative viability ([1]; first compound 0.253 µM): 0.487 | relative viability ([1]; first compound 0.8 µM): 0.575 | relative viability ([1]; first compound 2.53 µM): 0.622 | relative viability ([2]; first compound 0.08 µM): 0.28 | relative viability ([2]; first compound 0.253 µM): 0.303 | relative viability ([2]; first compound 0.8 µM): 0.314 | relative viability ([2]; first compound 2.53 µM): 0.309 | relative viability ([3]; first compound 0.08 µM): 0.635 | relative viability ([3]; first compound 0.253 µM): 0.363 | relative viability ([3]; first compound 0.8 µM): 0.441 | relative viability ([3]; first compound 2.53 µM): 0.335 | relative viability ([4]; first compound 0.08 µM): 0.611 | relative viability ([4]; first compound 0.253 µM): 0.533 | relative viability ([4]; first compound 0.8 µM): 0.476 | relative viability ([4]; first compound 2.53 µM): 0.726 | relative viability ([5]; first compound 0.08 µM): 0.817 | relative viability ([5]; first compound 0.253 µM): 0.744 | relative viability ([5]; first compound 0.8 µM): 0.826 | relative viability ([5]; first compound 2.53 µM): 0.711 | relative viability ([6]; first compound 0.08 µM): 1.01 | relative viability ([6]; first compound 0.253 µM): 0.773 | relative viability ([6]; first compound 0.8 µM): 0.763 | relative viability ([6]; first compound 2.53 µM): 0.574 | relative viability ([7]; first compound 0.08 µM): 0.534 | relative viability ([7]; first compound 0.253 µM): 0.443 | relative viability ([7]; first compound 0.8 µM): 0.463 | relative viability ([7]; first compound 2.53 µM): 0.432 | relative viability ([8]; first compound 0.08 µM): 0.643 | relative viability ([8]; first compound 0.253 µM): 0.566 | relative viability ([8]; first compound 0.8 µM): 0.545 | relative viability ([8]; first compound 2.53 µM): 0.609 | relative viability ([9]; first compound 0.08 µM): 0.817 | relative viability ([9]; first compound 0.253 µM): 0.721 | relative viability ([9]; first compound 0.8 µM): 0.746 | relative viability ([9]; first compound 2.53 µM): 0.658 | relative viability ([10]; first compound 0.08 µM): 0.656 | relative viability ([10]; first compound 0.253 µM): 0.612 | relative viability ([10]; first compound 0.8 µM): 0.556 | relative viability ([10]; first compound 2.53 µM): 0.634 | relative viability ([11]; first compound 0.08 µM): 1.03 | relative viability ([11]; first compound 0.253 µM): 0.877 | relative viability ([11]; first compound 0.8 µM): 0.89 | relative viability ([11]; first compound 2.53 µM): 0.783 | relative viability ([12]; first compound 0.08 µM): 0.817 | relative viability ([12]; first compound 0.253 µM): 0.6 | relative viability ([12]; first compound 0.8 µM): 0.742 | relative viability ([12]; first compound 2.53 µM): 0.443 | relative viability ([13]; first compound 0.08 µM): 0.308 | relative viability ([13]; first compound 0.253 µM): 0.232 | relative viability ([13]; first compound 0.8 µM): 0.298 | relative viability ([13]; first compound 2.53 µM): 0.27 | relative viability ([14]; first compound 0.08 µM): 0.441 | relative viability ([14]; first compound 0.253 µM): 0.393 | relative viability ([14]; first compound 0.8 µM): 0.403 | relative viability ([14]; first compound 2.53 µM): 0.367 | relative viability ([15]; first compound 0.08 µM): 0.833 | relative viability ([15]; first compound 0.253 µM): 0.504 | relative viability ([15]; first compound 0.8 µM): 0.444 | relative viability ([15]; first compound 2.53 µM): 0.46 | relative viability ([16]; first compound 0.08 µM): 0.704 | relative viability ([16]; first compound 0.253 µM): 0.467 | relative viability ([16]; first compound 0.8 µM): 0.479 | relative viability ([16]; first compound 2.53 µM): 0.546 | relative viability ([17]; first compound 0.08 µM): 0.605 | relative viability ([17]; first compound 0.253 µM): 0.586 | relative viability ([17]; first compound 0.8 µM): 0.611 | relative viability ([17]; first compound 2.53 µM): 0.598 | relative viability ([18]; first compound 0.08 µM): 1.08 | relative viability ([18]; first compound 0.253 µM): 0.96 | relative viability ([18]; first compound 0.8 µM): 0.91 | relative viability ([18]; first compound 2.53 µM): 0.581 | relative viability ([19]; first compound 0.08 µM): 0.615 | relative viability ([19]; first compound 0.253 µM): 0.594 | relative viability ([19]; first compound 0.8 µM): 0.504 | relative viability ([19]; first compound 2.53 µM): 0.406 | relative viability ([20]; first compound 0.08 µM): 0.722 | relative viability ([20]; first compound 0.253 µM): 0.46 | relative viability ([20]; first compound 0.8 µM): 0.656 | relative viability ([20]; first compound 2.53 µM): 0.464 | relative viability ([21]; first compound 0.08 µM): 0.696 | relative viability ([21]; first compound 0.253 µM): 0.495 | relative viability ([21]; first compound 0.8 µM): 0.744 | relative viability ([21]; first compound 2.53 µM): 0.514 | relative viability ([22]; first compound 0.08 µM): 0.607 | relative viability ([22]; first compound 0.253 µM): 0.533 | relative viability ([22]; first compound 0.8 µM): 0.464 | relative viability ([22]; first compound 2.53 µM): 0.526 | relative viability ([23]; first compound 0.08 µM): 0.387 | relative viability ([23]; first compound 0.253 µM): 0.339 | relative viability ([23]; first compound 0.8 µM): 0.394 | relative viability ([23]; first compound 2.53 µM): 0.34
